e = 2'-O-(2-methoxyethyl) (MOE); d = 2'-deoxy (DNA)
What follows are substances tested on human growth hormone receptor mRNA (assay: Inhibition of human growth hormone receptor mRNA levels by antisense oligonucleotides, quantitative real-time PCR, MCF7 cells). Details: averages from three experiments.
Format: cell-based
Design: concentration or dose not given beside the values
Protocol: “Target site” indicates the first (5′-most) nucleotide number on the particular target sequence to which the oligonucleotide binds. “% Inhib” indicates the inhibitory effect on hGHR mRNA levels by quantitative real-time PCR. Data are averages from three experiments in which MCF7 cells were treated with the antisense oligonucleotides.
All oligonucelotides in Table 1 are chimeric oligonucleotides (“gapmers”), 20 nucleotides in length, composed of a central “gap” region consisting of ten 2′-deoxynucleotides, which is flanked on both sides (5′ and 3′ directions) by five-nucleotide “wings”. The wings are composed of 2′-methoxyethyl (2′-MOE) nucleotides. The internucleoside (backbone) linkages are phosphorothioate (P═S) throughout the oligonucleotide. All uracils are 5-methyluracils (^MeU). Typically, the oligonucleotide is synthesized using 2-methoxyethyl modified thymidines not 5-methyluracils. All pyrimidines are C5 methylated (i.e., U, T, C are C5 methylated).

Point of comparison: “272345 (antisense CATCTATTACAAATAACATG; sugars from the 5' end e5 d10 e5, all phosphorothioate, methylation of C not given here) [compound 272345]”, “% INHIB (inhibitory effect on hGHR mRNA levels)” value 24%. Against it:
- 272343 (antisense AATGCTCTCAAGAATGATGT; sugars from the 5' end e5 d10 e5, all phosphorothioate, methylation of C not given here) [compound 272343] — higher, 48%
- 272316 (antisense AACTCGCCATAATTTCCAGA; sugars from the 5' end e5 d10 e5, all phosphorothioate, methylation of C not given here) [compound 272316] — higher, 64%
- 272356 (antisense ATGGAGGCTGGAGGTTCAAA; sugars from the 5' end e5 d10 e5, all phosphorothioate, methylation of C not given here) [compound 272356] — higher, 63%
- 272317 (antisense AGCCCAAATATTCCAAAGAT; sugars from the 5' end e5 d10 e5, all phosphorothioate, methylation of C not given here) [compound 272317] — higher, 65%
- 272352 (antisense CCAAAATGACATTCTGAGAC; sugars from the 5' end e5 d10 e5, all phosphorothioate, methylation of C not given here) [compound 272352] — higher, 77%
- 227464 (antisense CCTTTAATCTTTGGAACTGG; sugars from the 5' end e5 d10 e5, all phosphorothioate, methylation of C not given here) [compound 227464] — higher, 58%
- 272314 (antisense TAGGGTCCATCATTTTCCAT; sugars from the 5' end e5 d10 e5, all phosphorothioate, methylation of C not given here) [compound 272314] — higher, 56%
- 272320 (antisense AGATTGTGTTCACCTCCTCT; sugars from the 5' end e5 d10 e5, all phosphorothioate, methylation of C not given here) [compound 272320] — higher, 70%
- 272321 (antisense AACCCAAGAGTCATCACTGT; sugars from the 5' end e5 d10 e5, all phosphorothioate, methylation of C not given here) [compound 272321] — higher, 64%
- 227501 (antisense GCTATTTTTGGCTATAGAAA; sugars from the 5' end e5 d10 e5, all phosphorothioate, methylation of C not given here) [compound 227501] — higher, 64%
- 272313 (antisense ATTGCGTGGTGCTTCCCATC; sugars from the 5' end e5 d10 e5, all phosphorothioate, methylation of C not given here) [compound 272313] — higher, 77%
- 227483 (antisense AGGCTTTCTGTGGTGATGTA; sugars from the 5' end e5 d10 e5, all phosphorothioate, methylation of C not given here) [compound 227483] — higher, 75%
- 272357 (antisense TAGGGTCCATCTTTCAAGAC; sugars from the 5' end e5 d10 e5, all phosphorothioate, methylation of C not given here) [compound 272357] — higher, 62%
- 272341 (antisense GAGGCTATAGATCTTATCTC; sugars from the 5' end e5 d10 e5, all phosphorothioate, methylation of C not given here) [compound 272341] — higher, 65%
- 272342 (antisense TAGTGAGAAAGAAAGTTTCT; sugars from the 5' end e5 d10 e5, all phosphorothioate, methylation of C not given here) [compound 272342] — higher, 45%
- 227469 (antisense CTTAGAAGTCTGTCTGTGTC; sugars from the 5' end e5 d10 e5, all phosphorothioate, methylation of C not given here) [compound 227469] — higher, 63%
- 272325 (antisense AAGGCATAAGAGATCTGCTT; sugars from the 5' end e5 d10 e5, all phosphorothioate, methylation of C not given here) [compound 272325] — higher, 66%
- 272309 (antisense TAACAGCTGTTTTCCCCAGC; sugars from the 5' end e5 d10 e5, all phosphorothioate, methylation of C not given here) [compound 272309] — higher, 85%
- 227482 (antisense TTCTGTGGTGATGTAAATGT; sugars from the 5' end e5 d10 e5, all phosphorothioate, methylation of C not given here) [compound 227482] — higher, 53%
- 272324 (antisense TATGTCATTGGCATTGAAAT; sugars from the 5' end e5 d10 e5, all phosphorothioate, methylation of C not given here) [compound 272324] — higher, 53%
- 272361 (antisense ATTTTCCTTCCTAGAAAATA; sugars from the 5' end e5 d10 e5, all phosphorothioate, methylation of C not given here) [compound 272361] — lower, 10%
- 272327 (antisense GGACATCCCTGCCTTATTCT; sugars from the 5' end e5 d10 e5, all phosphorothioate, methylation of C not given here) [compound 272327] — higher, 60%
- 272355 (antisense TTGAGTGTTCCTAAAATGAA; sugars from the 5' end e5 d10 e5, all phosphorothioate, methylation of C not given here) [compound 272355] — the same, 24%
- 272303 (antisense CCAGAGATCCATACCTGTAG; sugars from the 5' end e5 d10 e5, all phosphorothioate, methylation of C not given here) [compound 272303] — higher, 55%
- 272349 (antisense AGTCTTCCAAACACACAGCT; sugars from the 5' end e5 d10 e5, all phosphorothioate, methylation of C not given here) [compound 272349] — higher, 68%
- 272338 (antisense GTGCTATGGTTTGCATTCAA; sugars from the 5' end e5 d10 e5, all phosphorothioate, methylation of C not given here) [compound 272338] — higher, 78%
- 272339 (antisense GTTTTACATATCCAAACTAT; sugars from the 5' end e5 d10 e5, all phosphorothioate, methylation of C not given here) [compound 272339] — higher, 72%
- 272340 (antisense CATCAACCAAGATTTGGTGA; sugars from the 5' end e5 d10 e5, all phosphorothioate, methylation of C not given here) [compound 272340] — higher, 69%
- 272358 (antisense TCTCCAGATAGAATCTAAAC; sugars from the 5' end e5 d10 e5, all phosphorothioate, methylation of C not given here) [compound 272358] — higher, 53%
- 272350 (antisense AGGCTGTTGTGAAATAGTAA; sugars from the 5' end e5 d10 e5, all phosphorothioate, methylation of C not given here) [compound 272350] — higher, 67%
- 227468 (antisense TCATCAATATCTAGCTCAAT; sugars from the 5' end e5 d10 e5, all phosphorothioate, methylation of C not given here) [compound 227468] — higher, 62%
- 227499 (antisense TATAAAAGGGCTTTGTAAAA; sugars from the 5' end e5 d10 e5, all phosphorothioate, methylation of C not given here) [compound 227499] — lower, 14%
- 272354 (antisense AGTTATGTGACCCTGATTGA; sugars from the 5' end e5 d10 e5, all phosphorothioate, methylation of C not given here) [compound 272354] — higher, 65%
- 227453 (antisense CATAATCAGGGCATTCTTTC; sugars from the 5' end e5 d10 e5, all phosphorothioate, methylation of C not given here) [compound 227453] — higher, 52%
